Tests used:
Histamine H4 receptor [1] = target: T1, Histamine H4 receptor (Homo sapiens, UniProt Q9H3N8); assay: Antagonist activity at human H4 receptor expressed in CHO cells co-expressing Galphai2 assessed as inhibition of imetit-induced GTPgamma[35S] binding at 1 uM after 30 mins by microbeta scintillation counting method relative to control; assay type: cell-based
Histamine H4 receptor [2] = target: T1, Histamine H4 receptor; assay: Antagonist activity at human H4 receptor expressed in CHO cells co-expressing Galphai2 assessed as inhibition of imetit-induced GTPgamma[35S] binding after 30 mins by microbeta scintillation counting method; assay type: cell-based
Histamine H4 receptor [3] = target: T1, Histamine H4 receptor; assay: Antagonist activity at H4 receptor in human SH-SY5Y cells assessed as inhibition of imetit-induced GTPgamma[35S] binding at 1 uM after 30 mins by microbeta scintillation counting method relative to control; assay type: cell-based
Histamine H3 receptor = Histamine H3 receptor (Homo sapiens, UniProt Q9Y5N1); assay: Antagonist activity at H3 receptor (unknown origin)
Histamine H4 receptor [4] = target: T1, Histamine H4 receptor; assay: Antagonist activity at H4 receptor in human SH-SY5Y cells assessed as inhibition of imetit-induced GTPgamma[35S] binding after 30 mins by microbeta scintillation counting method; assay type: cell-based
Histamine H4 receptor [5] = target: T1, Histamine H4 receptor; assay: Antagonist activity at H4 receptor (unknown origin)
[6] = target: Voltage-gated inwardly rectifying potassium channel KCNH2 (Homo sapiens, UniProt Q12809); assay: Inhibition of human ERG
Histamine H4 receptor [7] = target: T1, Histamine H4 receptor; assay: Agonist activity at human H4 receptor expressed in CHO cell membranes co-expressing Galphai2 at 1 uM by GTPgamma[35S] binding assay
Histamine H4 receptor [8] = target: T1, Histamine H4 receptor; assay: Agonist activity at human H4 receptor expressed in CHO cell membranes co-expressing Galphai2 by GTPgamma[35S] binding assay
D(3) dopamine receptor = D(3) dopamine receptor (Homo sapiens, UniProt P35462); assay: Antagonist activity at D3 receptor (unknown origin)
Histamine H4 receptor [9] = target: T1, Histamine H4 receptor; assay: Antagonist activity at human H4 receptor assessed as inhibition of imetit-induced GTPgamma[35S] binding after 30 mins by microbeta scintillation counting method

Chain of Histamine H3 receptor (Q9Y5N1 whole entry): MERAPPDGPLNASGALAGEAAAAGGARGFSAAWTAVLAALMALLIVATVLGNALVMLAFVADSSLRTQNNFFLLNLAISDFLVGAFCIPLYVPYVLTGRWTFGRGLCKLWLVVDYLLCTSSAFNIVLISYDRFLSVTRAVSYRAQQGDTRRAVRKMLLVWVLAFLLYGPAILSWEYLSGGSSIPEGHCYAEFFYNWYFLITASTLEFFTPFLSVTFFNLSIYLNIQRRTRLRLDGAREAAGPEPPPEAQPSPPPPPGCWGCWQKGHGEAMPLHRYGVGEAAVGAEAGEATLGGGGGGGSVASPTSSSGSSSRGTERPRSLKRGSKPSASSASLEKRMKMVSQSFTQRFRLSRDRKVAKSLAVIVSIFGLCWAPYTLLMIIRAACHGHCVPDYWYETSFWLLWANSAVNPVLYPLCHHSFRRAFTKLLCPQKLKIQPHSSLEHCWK
Chain of Voltage-gated inwardly rectifying potassium channel KCNH2 (Q12809 whole entry): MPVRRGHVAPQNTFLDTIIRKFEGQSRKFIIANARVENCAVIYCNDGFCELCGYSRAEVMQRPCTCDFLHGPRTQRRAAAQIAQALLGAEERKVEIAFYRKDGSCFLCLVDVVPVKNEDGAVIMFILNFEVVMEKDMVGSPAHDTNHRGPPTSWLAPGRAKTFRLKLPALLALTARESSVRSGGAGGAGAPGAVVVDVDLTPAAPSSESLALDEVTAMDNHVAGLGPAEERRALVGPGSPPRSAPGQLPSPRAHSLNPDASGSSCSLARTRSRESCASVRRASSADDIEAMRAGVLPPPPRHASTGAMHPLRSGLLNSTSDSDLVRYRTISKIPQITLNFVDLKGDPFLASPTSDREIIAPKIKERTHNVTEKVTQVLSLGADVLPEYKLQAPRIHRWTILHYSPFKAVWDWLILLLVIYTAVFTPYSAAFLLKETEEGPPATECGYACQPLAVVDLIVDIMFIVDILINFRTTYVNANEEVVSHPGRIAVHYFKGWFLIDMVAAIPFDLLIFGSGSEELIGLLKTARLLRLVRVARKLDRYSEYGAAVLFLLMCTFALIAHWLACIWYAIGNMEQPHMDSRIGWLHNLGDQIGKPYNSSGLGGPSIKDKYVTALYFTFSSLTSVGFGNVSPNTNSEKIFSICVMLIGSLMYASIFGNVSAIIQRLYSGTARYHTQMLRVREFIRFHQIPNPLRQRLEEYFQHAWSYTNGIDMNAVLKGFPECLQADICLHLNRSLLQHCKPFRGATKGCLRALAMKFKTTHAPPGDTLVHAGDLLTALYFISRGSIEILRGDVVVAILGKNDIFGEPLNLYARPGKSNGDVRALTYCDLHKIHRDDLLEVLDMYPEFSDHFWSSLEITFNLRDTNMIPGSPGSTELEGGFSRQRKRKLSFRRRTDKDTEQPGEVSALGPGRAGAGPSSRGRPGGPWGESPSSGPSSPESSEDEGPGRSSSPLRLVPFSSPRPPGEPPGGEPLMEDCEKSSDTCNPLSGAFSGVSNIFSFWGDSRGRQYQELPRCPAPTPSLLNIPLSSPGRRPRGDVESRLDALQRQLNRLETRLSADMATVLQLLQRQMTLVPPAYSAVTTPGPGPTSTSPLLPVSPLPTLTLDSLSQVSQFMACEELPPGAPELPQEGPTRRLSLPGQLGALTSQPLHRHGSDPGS
T1 sequence (Q9H3N8 whole entry): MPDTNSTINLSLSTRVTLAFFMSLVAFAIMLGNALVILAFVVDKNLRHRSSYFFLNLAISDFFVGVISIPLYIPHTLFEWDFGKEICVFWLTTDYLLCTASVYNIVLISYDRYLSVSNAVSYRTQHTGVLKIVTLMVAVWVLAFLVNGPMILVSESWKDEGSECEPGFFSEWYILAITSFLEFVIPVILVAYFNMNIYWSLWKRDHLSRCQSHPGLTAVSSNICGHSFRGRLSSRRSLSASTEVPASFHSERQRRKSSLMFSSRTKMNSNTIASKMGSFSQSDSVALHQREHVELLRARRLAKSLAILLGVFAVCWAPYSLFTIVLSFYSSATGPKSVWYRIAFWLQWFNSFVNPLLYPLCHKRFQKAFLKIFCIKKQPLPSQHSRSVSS
Chain of D(3) dopamine receptor (P35462 whole entry): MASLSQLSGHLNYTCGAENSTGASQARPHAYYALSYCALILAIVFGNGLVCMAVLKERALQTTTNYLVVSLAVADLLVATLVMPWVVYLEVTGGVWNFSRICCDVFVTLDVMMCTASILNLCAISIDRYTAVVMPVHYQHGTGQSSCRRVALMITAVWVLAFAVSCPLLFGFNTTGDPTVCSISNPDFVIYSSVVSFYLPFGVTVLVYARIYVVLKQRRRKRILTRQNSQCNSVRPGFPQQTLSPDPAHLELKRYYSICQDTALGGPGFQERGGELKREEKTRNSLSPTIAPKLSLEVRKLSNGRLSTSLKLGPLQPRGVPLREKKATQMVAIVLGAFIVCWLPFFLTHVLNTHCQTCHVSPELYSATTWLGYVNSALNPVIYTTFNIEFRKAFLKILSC

Compound	inhibition (Histamine H4 receptor [1])	Ki (Histamine H4 receptor [2])	inhibition (Histamine H4 receptor [3])	Ki (Histamine H3 receptor)	Ki (Histamine H4 receptor [4])	also measured
c1ccc(C(OCCCc2c[nH]cn2)(c2ccccc2)c2ccccc2)cc1	> 20%					
CC(=O)SCC(Cc1ccc2c(c1)OCO2)C(=O)NCC(=O)OCc1ccccc1 (configuration not stated)	> 20%	214 nM				
O=C(NC(c1ccc(Cl)cc1)c1ccc(Cl)cc1)OCCCc1c[nH]cn1			> 20%	258 nM	14.5 nM	
CC(C)(CN=C(c1ccccc1O)c1ccccc1O)c1c[nH]cn1			> 20%		19 nM	
O=[N+]([O-])c1cccc(C(OCCCc2c[nH]cn2)c2ccccc2)c1 (configuration not stated)			> 20%	9.6 nM	2.7 nM	
c1ccc(C(OCCCc2cnc[nH]2)(c2ccccc2)c2ccccc2)cc1		240 nM		> 1000 nM		
O=C(O)C(Cc1cccc2ccccc12)NC(=O)[C@@H](CS)Cc1ccccc1 (some centres not stated)			> 20%		62 nM	
O=C(c1ccccc1)c1ccc(OCCCCCN2CCCC2)cc1	> 20%	13000 nM				
O=c1[nH]c2ccccc2n1C1CCN(CCCC(c2ccc(F)cc2)c2ccc(F)cc2)CC1 [PIMOZIDE]						Ki (Histamine H4 receptor [5]): 2000 nM
Nc1ccc(NCCc2ccc(OCCCN3CCCCC3)cc2)nc1	> 20%	30000 nM		4.8 nM		
Ic1ccc(C(OCCCc2c[nH]cn2)c2ccccc2)cc1 (configuration not stated)			> 20%	14 nM	3 nM	
O=C(CCCc1ccc(I)cc1)OCCCc1c[nH]cn1	> 20%					
FC(F)(F)c1cccc(N2CCN(CCCCNc3nccc4ccccc34)CC2)c1			> 20%		5.4 nM	
O=C(Nc1cccc2ccccc12)N1CCC(c2c[nH]cn2)CC1	> 20%	1090 nM				
c1ccc(C(OCCCc2c[nH]cn2)c2ccccc2)cc1			> 20%	24 nM	25 nM	Ki [6]: 500 nM
CCOC(=O)CN1Cc2ccccc2C[C@@H](NC(=O)C(Cc2ccccc2)C(=O)NO)C1=O (some centres not stated)	> 20%	3020 nM				

Compound	inhibition (Histamine H4 receptor [1])	Ki (Histamine H4 receptor [2])	inhibition (Histamine H4 receptor [3])	Ki (Histamine H3 receptor)	Ki (Histamine H4 receptor [4])	also measured
COc1ccc(/C(=N/[C@H](C)Cc2cnc[nH]2)c2ccccc2)c(O)c1						Activity (Histamine H4 receptor [7]): > 20%; EC50 (Histamine H4 receptor [8]): 6750 nM
CC(=O)c1ccc(OCc2ccc(CN3CCCC(C)C3)cc2)cc1 (configuration not stated)	> 20%	16400 nM		22 nM		
Clc1cccc(N2CCN(CCCCNc3nccc4ccccc34)CC2)c1Cl			> 20%		5.2 nM	Ki [6]: 30 nM
COc1ccc2c(c1)c(CC(=O)NCCCn1ccnc1)c(C)n2C(=O)c1ccc(Cl)cc1	> 20%	4200 nM				
c1ccc(-c2ccc(CCCOCCCc3c[nH]cn3)cc2)cc1			> 20%	118 nM	27 nM	
COc1cc2c(cc1OC)C(C)=C(C(=O)NCCCCN1CCN(c3ccccc3F)CC1)C2	> 20%	3800 nM				Ki (D(3) dopamine receptor): 0.5 nM
O=C(CCNC(=O)C(Cc1ccccc1)Cn1ccnc1)OCc1ccccc1 (configuration not stated)			> 20%		174 nM	
Brc1ccc(C(OCCCc2c[nH]cn2)c2ccc3ccccc3c2)cc1 (configuration not stated)			> 20%	47 nM	4 nM	
O=C(NCCCCN1CCN(c2cccc(Cl)c2Cl)CC1)c1cncc(Br)c1						Ki (D(3) dopamine receptor): 2.8 nM; Ki (Histamine H4 receptor [9]): 3100 nM
COc1ccccc1N1CCN(CCCCNc2nccc3ccccc23)CC1			> 20%		51 nM	
O=C(CCCc1ccc(I)cc1)OCCCc1cnc[nH]1		118 nM		41 nM		
O=C(/C=C/c1ccccc1)c1ccc(OCCCc2c[nH]cn2)cc1			> 20%	8.3 nM	11 nM	
COc1ccc2c(c1)c(CC(=O)NCCCO)c(C)n2C(=O)c1ccc(Cl)cc1						Activity (Histamine H4 receptor [7]): > 20%; EC50 (Histamine H4 receptor [8]): 7780 nM
Clc1cccc(N2CCN(CCCCNc3ccc4ccccc4n3)CC2)c1Cl	> 20%	125 nM				Ki [6]: 10 nM
O=C(NCCCCN1Cc2cccc3cccc(c23)C1)c1ccc2ccccc2c1			> 20%		400 nM	
